Converted amounts (≈) assume the structure as drawn. Where two headings read alike, the source gives them in different places.
Experiments:
[1] = tested on: human peripheral blood mononuclear cells (PBMC); experiment: Cell viability/proliferation of PBMC by MTT-test and trypan blue exclusion; type: cell-based; details: 48 h, read-out: IC50 number of viable cells
Procedure: PBMC were isolated from whole blood obtained from healthy donors of whom written informed consent was obtained that their donated blood might be used for scientific purposes in case when it was not selected for transfusion. Separation of blood cells was performed using density centrifugation (Lymphoprep, Nycomed Pharma AS, Oslo, Norway). After isolation, PBMC were washed three times in phosphate buffered saline containing 0.2% 0.5 mM EDTA. Cells were maintained in RPMI 1640 supplemented with 10% heat-inactivated fetal calf serum (Biochrom, Berlin, Germany), 2 mM glutamine (Serva, Heidelberg, Germany) and 0.05 mg/ml gentamicin (Bio-Whittaker, Walkersville, Md.) in a humidified atmosphere containing 5% CO2 for 48 h. This procedure was observed earlier to yield best reproducible results when applied for testing of anti-inflammatory effects of compounds or drugs (Winkler et al., 2007, Int. Arch. Allergy Immunol. 142, 127-132). For each of the four experiments run in duplicates, PBMC were freshly prepared.
Consequently, the cells were stimulated or not with 10 μg/ml PHA or Con A for 48 h.
(§1) After incubation of PBMC with mitogens Con A or PHA (each 10 μg/ml) or treatment of THP-1 cells with LPS (1 μg/ml ), with or without cannabinoids for 48 h, cell viability was measured by MTT-test (3-[4,5-[…]]-2,5 diphenyl tetrazolium bromide) and by trypan blue exclusion method in three experiments performed in triplicates. No toxicity could be observed with solvent (0.1% EtOH; data not shown). IC50 were calculated by the CalcuSyn software from Biosoft, Cambridge, UK, using the original concept of Chou and Talalay (Chou and Talalay, 1984, Adv. Enzyme Regul. 22, 27-55).

[2] = tested on: Myelomonocytic THP-1 cells; experiment: Cell viability of THP-1 cells by MTT-test and trypan blue exclusion; type: cell-based; details: 0.1-10 μg/ml, unstimulated or LPS (1 μg/ml) stimulated THP-1 cells, 48 h
Procedure: Myelomonocytic THP-1 cells were obtained from European Collection of Cell Cultures (ECACC). […] Afterwards, cells were stimulated or not with 1 μg/ml LPS for 48 h.
as §1

[3] = tested on: indoleamine 2,3-dioxygenase (IDO); experiment: IDO activity (kyn/trp by HPLC) in PBMC supernatants; type: cell-based, human; details: for IC50: Homo sapiens, PBMC; for effect of low doses on activity of the IDO enzyme: low doses 0.01-0.1 μg/ml, mitogen-stimulated PBMC
neopterin formation = experiment: Neopterin formation in PBMC supernatants (ELISA); type: cell-based; details: Homo sapiens
IDO mRNA = IDO mRNA expression in PHA stimulated PBMC (real-time RT-PCR); type: cell-based, human; details: 5 μg/ml (highest concentration tested), PHA 5 μg/ml, 6 h
Procedure: (§2) For quantification of IDO and IFN-γ gene expression, RNA was extracted from PBMC using Trizol reagent (Invitrogen, Vienna, Austria) and reverse-transcribed using Superscript II reverse transcriptase (Invitrogen). Thirty cyles of PCR were performed using Sure Start Taq polymerase (Stratagene, La Jolla, Calif.). Levels of mRNA were quantified by real-time PCR with the ABI/PRISM 7700 sequence detection system (PE Applied Biosystems, Foster City, Calif.). 18sRNA was used as an invariant endogenous control. Specific primers and an internal fluorescent TaqMan probe were designed as follows: human 18sRNA primers, 5′-[…]-3′ (SEQ ID NO:1) and 5′-[…]-3′ (SEQ ID NO:2); 18sRNA probe, 5′-FAM-[…]-TAMRA-3′ (SEQ ID NO:3); human IDO primers, 5′-[…]-3′ (SEQ ID NO:4) and 5′-[…]-3′ (SEQ ID NO:5); IDO probe, 5′-FAM-[…]-TAMRA-3′ (SEQ ID NO:6); human IFN-γ primers, 5′[…]-3′ (SEQ ID NO:7), 5′-[…]-3′ (SEQ ID NO:8); IFN-γ probe, 5′-FAM-[…]-TAMRA-3′ (SEQ ID NO:9). Relative mRNA expression was calculated by dividing the relative quantity of each PCR product by the relative quantity of 18sRNA in each sample.

IFN-γ mRNA = IFN-γ mRNA expression in PHA stimulated PBMC (real-time RT-PCR); type: cell-based, human; details: 5 μg/ml (highest concentration tested), PHA 5 μg/ml, 6 h
Procedure: as §2

[4] = tested on: indoleamine 2,3-dioxygenase (IDO); experiment: IDO activity (kyn/trp by HPLC) in THP-1 cells; type: cell-based; details: for IC50: Homo sapiens, LPS (1 μg/ml) stimulated THP-1 cells, 48 h, read-out: IC50 decrease of kyn/trp (LPS-induced tryptophan degradation); for effect on tryptophan metabolism (kyn/trp): unstimulated THP-1 cells, CBD effect at the highest concentration tested
CB2 receptors = CB2 receptors (Homo sapiens, UniProt P34972); details: reported; cited from earlier work
CB1/CB2 = details: reported; cited from earlier work
[5] = Con A-stimulated PBMC (10 μg/ml)
[6] = unstimulated PBMC, 0.01-20 μg/ml
[7] = 48 h, Con A-stimulated PBMC (10 μg/ml), 48 h, read-out: IC50 mitogen-induced IDO activity (kyn/trp)
[8] = 48 h, PHA-stimulated PBMC (10 μg/ml), 48 h, read-out: IC50 mitogen-induced IDO activity (kyn/trp)
[9] = unstimulated PBMC, 0.01-10 μg/ml, read-out: IC50 decrease of kyn/trp
[10] = 48 h, Con A-stimulated PBMC (10 μg/ml), 48 h, read-out: IC50 mitogen-induced neopterin production
[11] = 48 h, PHA-stimulated PBMC (10 μg/ml), 48 h, read-out: IC50 mitogen-induced neopterin production
[12] = unstimulated PBMC, read-out: IC50 release of neopterin

Sequence of CB2 receptors (P34972 whole entry): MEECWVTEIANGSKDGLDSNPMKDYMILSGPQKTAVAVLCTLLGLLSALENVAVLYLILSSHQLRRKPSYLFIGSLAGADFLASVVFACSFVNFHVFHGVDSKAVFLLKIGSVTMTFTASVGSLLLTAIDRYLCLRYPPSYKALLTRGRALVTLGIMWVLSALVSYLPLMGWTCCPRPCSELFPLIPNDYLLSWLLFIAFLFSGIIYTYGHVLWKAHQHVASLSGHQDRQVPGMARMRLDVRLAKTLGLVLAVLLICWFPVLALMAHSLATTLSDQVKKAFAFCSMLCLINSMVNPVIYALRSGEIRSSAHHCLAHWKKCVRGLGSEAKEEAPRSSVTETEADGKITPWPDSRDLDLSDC

CCCCCc1cc(O)c2c(c1)OC(C)(C)[C@@H]1CCC(C)=C[C@@H]21 [THC, (6aR,10aR)-6,6,9-Trimethyl-3-pentyl-6a, 7,8,10a-tetrahydro-6H-benzo[c]chromen-1-ol]
IC50 [1, 5]: 17.5 µg/mL (≈ 55.6 µM)
IC50 ([1]; PHA-stimulated PBMC (10 μg/ml)): 15.2 µg/mL (≈ 48.3 µM)
IC50 [1, 6]: 14.5 µg/mL (≈ 46.1 µM)
influence on viability of THP-1 cells [2]: did not show any influence
IC50 [3, 7]: 4.2 µg/mL (≈ 13.4 µM)
IC50 [3, 8]: 5.5 µg/mL (≈ 17.5 µM)
IC50 [3, 9]: 2.6 µg/mL (≈ 8.27 µM)
effect of low doses on activity of the IDO enzyme [3]: modest but significant increase
IC50 (neopterin formation; [10]): 6.7 µg/mL (≈ 21.3 µM)
IC50 (neopterin formation; [11]): 5.3 µg/mL (≈ 16.9 µM)
IC50 (neopterin formation; [12]): 16.7 µg/mL (≈ 53.1 µM)
inhibition of mitogen-stimulated expression of IDO mRNA (IDO mRNA): almost completely, inhibit
inhibition of mitogen-stimulated expression of IFN-γ mRNA (IFN-γ mRNA): almost completely, inhibit
IC50 [4]: 0.6 µg/mL (≈ 1.91 µM)
effect on tryptophan metabolism (kyn/trp) [4]: did not influence tryptophan metabolism

C=C(C)[C@@H]1CCC(C)=C[C@H]1c1c(O)cc(CCCCC)cc1O [CBD, 2-[(1R,6R)-3-methyl-6-prop-1-en-2-yl-1-cyclohex-2-enyl]-5-pentylbenzene-1,3-diol]
IC50 [1, 5]: 8.6 µg/mL (≈ 27.3 µM)
IC50 ([1]; PHA-stimulated PBMC (10 μg/ml)): 8.5 µg/mL (≈ 27 µM)
IC50 [1, 6]: 7.3 µg/mL (≈ 23.2 µM)
influence on viability of THP-1 cells [2]: did not show any influence
IC50 [3, 7]: 2.8 µg/mL (≈ 8.9 µM)
IC50 [3, 8]: 1.4 µg/mL (≈ 4.45 µM)
IC50 [3, 9]: 1.2 µg/mL (≈ 3.82 µM)
effect of low doses on activity of the IDO enzyme [3]: modest but significant increase
IC50 (neopterin formation; [10]): 3.1 µg/mL (≈ 9.86 µM)
IC50 (neopterin formation; [11]): 3.7 µg/mL (≈ 11.8 µM)
IC50 (neopterin formation; [12]): 8.2 µg/mL (≈ 26.1 µM)
inhibition of mitogen-stimulated expression of IDO mRNA (IDO mRNA): almost completely, inhibit
inhibition of mitogen-stimulated expression of IFN-γ mRNA (IFN-γ mRNA): almost completely, inhibit
IC50 [4]: 0.3 µg/mL (≈ 0.954 µM)
effect on tryptophan metabolism (kyn/trp) [4]: faint suppression of tryptophan degradation
affinity (CB2 receptors): micromolar range
KB antagonism of CB1/CB2 agonists (CB1/CB2): low nanomolar range

Source: patent US20110257256A1, “CANNABINOIDS FOR USE IN TREATING OR […] […] […]” (priority 2008, published 2011)
